Data on five compounds can be found in US20060079568A1, “Inhibition of atherosclerosis by diindolylmethane analogs” (The Texas A&M University System, priority 2004, published 2006).

One series has as its system HUVECs. Description: Treatment of unstimulated HUVECs: apoptosis and baseline ICAM-1 expression. The conditions noted are these: up to 10 μmol/L, HUVECs without TNF-α (data not shown).
For another series, the system named is ICAM-1. Nature of the series: TNF-α-induced cell surface expression of ICAM-1 in HUVECs measured by FACS. The format is cell-based, human. The conditions noted are these: then 5 ng/ml TNF-α; for reduction of TNF-α-induced ICAM-1 expression: 10 μmol/L pretreatment 6 hours, vs TNF-α-stimulated control cells; for effect on TNF-α-induced ICAM-1 expression (in words): pretreatment 6 hours (up to 10 μmol/L). On the procedure: The expression of ICAM-1 on the cell surface was determined in HUVECs cultured in six-well plates pretreated with one of the three different p-substituted phenyl DIM analogs or with vehicle (0.1% DMSO) at the concentrations indicated. Their effects were compared with those of other PPARγ agonists by preincubating HUVECs with ciglitazone (Biomol, Plymouth meeting, Pa.) or 15d-PGJ2 (Calbiochem, San Diego, Calif.) at the same doses.
After 6 hours, cells were incubated with TNF-α (R&D Systems, Minneapolis, Minn.) at a concentration of 5 ng/ml for 12 hours. Cells were then detached with 10 mmol/L EDTA in 0.5% phosphate-buffered saline, collected by centrifugation, and stained for 30 minutes on ice in the dark with R-phycoerythrin-labeled monoclonal antibody against ICAM-1 (CD54) or with the appropriate R-phycoerythrin-labeled isotype IgG (Pharmingen, San Diego, Calif.) as a control.
The fluorescence intensity of 10,000 gated viable cells was analyzed for each sample on a FACSCalibur Flow Cytometer (Becton Dickinson Immunocytometry Systems, San Diego, Calif.) using Cell Quest (Becton Dickinson) acquisition software. All experiments were performed in triplicate.
For orientation: In flow cytometry, cells or beads pass a laser one at a time.

A further series has as its system IL-6. Nature of the series: IL-6 production in supernatants of TNF-α-stimulated HUVECs, ELISA. The format is cell-based, human. To be noted: for IL-6 level in supernatant after TNF-α stimulation: 10 μmol/L pretreatment 6 hours, then 5 ng/ml TNF-α 6 hours, TNF-α alone 228±12.7, baseline 52.8±7.5; for effect on TNF-α-induced IL-6 production (in words): 10 μmol/L pretreatment, 5 ng/ml TNF-α. On the procedure: (§1) In order to measure chemokine levels in the cell supernatant, HUVECs cultured in 24-well plates were preincubated for 6 hours with one of the three p-substituted phenyl DIM analogs at the concentrations indicated or with vehicle and then stimulated with 5 ng/ml TNF-α. For comparison, HUVECs were also preincubated with ciglitazone or 15d-PGJ2 at the same concentrations and then stimulated with TNF-α at a concentration of 5 ng/ml. Cell culture supernatants were collected 6 and 24 hours after the stimulation for analysis of IL-6 and MCP-1, respectively.
(§2) The levels of IL-6 and MCP-1 were quantified using commercial ELISA kits (BioSource International, Camarillo, Calif.) according to the manufacturer's directions. The minimum detectable concentration of the assay was 2 pg/ml for IL-6 and <20 pg/ml for MCP-1. All experiments were performed in triplicate.
(§3) To determine the effects of the three p-substituted phenyl DIM analogs on TNF-α-induced chemokine production in HUVECs, cells were pretreated for 6 hours with one of the three analogs at the concentrations indicated or with vehicle and then stimulated with 5 ng/ml TNF-α for the indicated time before the chemokine assays were performed.
A general note: In an ELISA, binding on a coated surface is turned into a signal by an enzyme label.

A further series deals with MCP-1. Nature of the series: MCP-1 production in supernatants of TNF-α-stimulated HUVECs, ELISA. The series is classed as cell-based, human. The conditions noted are these: for MCP-1 level in supernatant after TNF-α stimulation: 10 μmol/L pretreatment 6 hours; for effect on TNF-α-induced MCP-1 production (in words): 10 μmol/L pretreatment, 5 ng/ml TNF-α. On the procedure:
as §1, §2, §3

Another series addresses T1, PPAR-γ (Homo sapiens, UniProt P37231).
T1 sequence (P37231 1-505): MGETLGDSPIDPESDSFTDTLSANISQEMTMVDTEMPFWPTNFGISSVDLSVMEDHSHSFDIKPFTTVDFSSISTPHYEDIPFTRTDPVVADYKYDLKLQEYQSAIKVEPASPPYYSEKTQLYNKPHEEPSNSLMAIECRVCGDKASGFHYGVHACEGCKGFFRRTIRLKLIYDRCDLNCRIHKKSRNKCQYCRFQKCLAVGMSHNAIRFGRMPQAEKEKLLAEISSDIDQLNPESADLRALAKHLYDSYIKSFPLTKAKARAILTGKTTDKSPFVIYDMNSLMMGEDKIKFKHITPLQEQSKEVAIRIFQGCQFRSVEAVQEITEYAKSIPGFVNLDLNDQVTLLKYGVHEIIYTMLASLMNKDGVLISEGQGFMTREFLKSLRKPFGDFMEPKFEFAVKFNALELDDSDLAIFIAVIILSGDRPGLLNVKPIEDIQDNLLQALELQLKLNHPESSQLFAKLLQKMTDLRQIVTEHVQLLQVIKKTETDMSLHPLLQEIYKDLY
To be noted: earlier structure-activity studies [5]; cited from earlier work.

[1] abbreviates: then 5 ng/ml TNF-α 24 hours, TNF-α alone 7.8±0.19, baseline 1.05±0.07.

The structures appear in SMILES notation. “Also recorded” adds a separate entry of the source.

With `CCCCC/C=C/C=C1/C(=O)C=C[C@@H]1C/C=C\CCCC(=O)O` [15d-PGJ2, 15-deoxy-δ^12,14-prostaglandin J2, reference compound], the “change of baseline expression of ICAM-1” value in the series with HUVECs is recorded as “did not induce apoptosis or change the baseline expression of ICAM-1”. In the series with ICAM-1, the “reduction of TNF-α-induced ICAM-1 expression” value (shortened to “reduction”) turned out to be 84.4% and the “effect on TNF-α-induced ICAM-1 expression (in words)” value is “significantly inhibited; also recorded: decreased”. For the same compound, in the series with IL-6, the “IL-6 level in supernatant after TNF-α stimulation” value (“IL-6 level in supernatant” for short) turned out to be 29.8 ± 1.6 pg/mL and the “effect on TNF-α-induced IL-6 production (in words)” value is “significantly inhibited”. The MCP-1 level in supernatant after TNF-α stimulation with MCP-1 (then 5 ng/mL TNF-α, comparison agonists) was 1.5 ± 0.3 ng/mL. Besides, the “effect on TNF-α-induced MCP-1 production (in words)” value in the series on MCP-1 is on record as “significantly inhibited”.

Turning to `CC1(COc2ccc(CC3SC(=O)NC3=O)cc2)CCCCC1` (stereo not shown) [ciglitazone, reference compound], the induction of apoptosis entry with HUVECs is listed as “did not induce apoptosis”. The “effect on TNF-α-induced ICAM-1 expression (in words)” value in the series with ICAM-1 is “inactive; also recorded: no inhibitory effect”. In addition, in the series with IL-6, the “IL-6 level in supernatant” value turned out to be 207 ± 13 pg/mL and the “effect on TNF-α-induced IL-6 production (in words)” value is “inactive”. In the series on MCP-1, the “effect on TNF-α-induced MCP-1 production (in words)” value was “inactive”.

On to `c1ccc(-c2ccc(C(c3c[nH]c4ccccc34)c3c[nH]c4ccccc34)cc2)cc1` [DIM-C-pPhC6H5, 1,1-bis(3′-indolyl)-1-(p-biphenyl) methane], for which, in the series on ICAM-1, the “reduction” value came to 71.3% and the “effect on TNF-α-induced ICAM-1 expression (in words)” value was “inhibited; also recorded: decreased”. For the same compound, in the series with IL-6, the “IL-6 level in supernatant” value was 143.4 ± 12.2 pg/mL and the “effect on TNF-α-induced IL-6 production (in words)” value is recorded as “inhibited”. The PPAR-γ agonist activity entry on PPAR-γ is recorded as “potent; also recorded: active agents”. The “MCP-1 level in supernatant after TNF-α stimulation” value in the series on MCP-1 (setting [1]) worked out at 2.2 ± 0.49 ng/mL. Moreover, the “effect on TNF-α-induced MCP-1 production (in words)” value in the series with MCP-1 is reported as “inhibited”.

`Cc1ccc(C(c2c[nH]c3ccccc23)c2c[nH]c3ccccc23)cc1` [DIM-C-pPhCH3]: in the series on ICAM-1, the “reduction” value is 32% and the “effect on TNF-α-induced ICAM-1 expression (in words)” value was “lower activity; also recorded: inactive”. In addition, the “effect on TNF-α-induced IL-6 production (in words)” value in the series with IL-6 is on record as “lower activity; also recorded: did not decrease; also recorded: did not significantly inhibit”. The PPAR-γ agonist activity result at PPAR-γ was “less active; also recorded: low PPAR-γ agonist activity; also recorded: relatively inactive”. Further, in the series with MCP-1, the “effect on TNF-α-induced MCP-1 production (in words)” value is “lower activity; also recorded: did not decrease; also recorded: did not affect”.

Consider `CC(C)(C)c1ccc(C(c2c[nH]c3ccccc23)c2c[nH]c3ccccc23)cc1` [DIM-C-pPhtBu, 1,1-bis(3′-indolyl)-1-(p-t-butylphenyl) methane], for which, in the series on ICAM-1, the “reduction” value is 77.5% and the “effect on TNF-α-induced ICAM-1 expression (in words)” value is given as “inhibited; also recorded: decreased the expression of ICAM-1 in a concentration-dependent manner”. In the series on IL-6, the “IL-6 level in supernatant” value worked out at 130.3 ± 19.3 pg/mL and the “effect on TNF-α-induced IL-6 production (in words)” value is recorded as “inhibited”. Also, on PPAR-γ, the PPAR-γ agonist activity entry is reported as “potent; also recorded: active agents”. In addition, the “MCP-1 level in supernatant after TNF-α stimulation” value in the series on MCP-1 (setting [1]) turned out to be 3.9 ± 0.41 ng/mL. The “effect on TNF-α-induced MCP-1 production (in words)” value in the series on MCP-1 is given as “inhibited”.
